Source: US6103733A, “Method for increasing HDL cholesterol levels using heteroaromatic phenylmethanes” (priority 1998, dated 2000)
Where two headings read alike, the source gives them in different places.

Tests used:
[1] = test system: CYP3A; experiment: CYP3A induction measured as increase in rate of ethosuximide clearance after 8-day pretreatment; assay type: in vivo, rats; conditions: for increase in ethosuximide clearance: 8-day pretreatment, rats; for CYP3A activity induced compared with clotrimazole (Compound (III)): measured by ethosuximide clearance, in words
Description: FIG. 1 represents a fold increase in ethosuxinide clearances following an 8-day pretreatment schedule of the azoles;
Using clotrimazole (Compound (III)) as a lead compound, the effect of structure on the ability of a compound to induce CYP3A activity was determined, as measured by the test compound's ability to increase the rate of ethosuximide clearance. Over 40 structural modifications of clotrimazole were tested and significant differences in the ability to induce CYP3A activity was observed.
Analysis of the effect of substitution on the ability of a compound to induce CYP3A activity enables us to propose requirements for the induction in vivo. First, a heteroaromatic nucleus containing basic nitrogen must be present. Significant activity (i.e. >2 fold increase in ethosuximide clearance) is achieved only using substituted imidazoles, 2-methylimidazole (XIV), or in one case, pyridine (XVI). […] A variety of substituents were introduced into a single aryl ring of triphenylmethylimidazole. Most of the monosubstituted 1-triphenylmethylimidazoles produced inducing activity lower than that measured for the unsubstituted member of the series, regardless of the nature of the substituent. High magnitude CYP3A induction (i.e. >3-fold increase in ethosuximide clearance was found in only four substituted triphenylmethyl imidazoles: (XXXI)(meta-chloro). (XXXIII)(para chloro), (XXXVIII)(metafluoro).

[2] = test system: HDL-cholesterol; conditions: epileptic subjects vs matched patients without epilepsy; phenobarbital and/or phenytoin; cited from earlier work
[3] = test system: HDL cholesterol; conditions: prospective experiments; cited from earlier work
[4] = test system: HDL-cholesterol; conditions: rats; cited from earlier work
[5] = test system: apoA1; conditions: rats; cited from earlier work
[6] = test system: cytochromes P450; conditions: cited from earlier work
[7] = test system: HDL-cholesterol; experiment: Serum HDL-cholesterol level after feeding of the compound over 8 days; assay type: in vivo; conditions: feeding over 8 days, rats; in words
From the text: FIG. 2 represents a fold increase of HDL-cholesterol per compound;
We have invented a family of related compounds which cause a significant pharmacological elevation of serum high density lipoprotein (HDL-cholesterol) concentration from 20% to greater than 200%. […] The effect on HDL cholesterol was paralleled by an elevation in the level of apoprotein A1 (a protein component of HDL) and by elevation of apo A1 messenger RNA in treated animals.
The effect of CYP3A inducers on levels of HDL-cholesterol was determined by administration of the compound by feeding over 8 days followed by sacrifice of the animal and determination of HDL-cholesterol levels. The effects of benzylimidazole (IV), clotrimazole, the five high magnitude CYP3A inducers and four compounds showing intermediate CYP3A inducing activity were evaluated. […] The significant linear correlation between the increase in HDL-cholesterol and the increase in ethosuximide clearance is shown in FIG. 3, and supports the belief that the activities are related.

[8] = Liver/body weight ratio after administration over several days; assay type: in vivo; conditions: rats, indirect sign of increased cytochrome P450 content
Description: (§1) A correlation between induction of CYP3A and an increase in serum HDL-cholesterol was supported by our early experiments in which selective CYP3A inducers (Clotrimazole, dexamethasone) were administered to rats over a period of several days, and the effect on liver/body weight ratios and on HDL-cholesterol/total cholesterol ratios determined. […] A positive relationship between cytochrome P450 induction and improvement of serum lipid levels was also found.

[9] = test system: HDL2; experiment: HDL2/total cholesterol ratio after administration over several days; assay type: in vivo; conditions: pretreated rats; in words
Description: as §1

[10] = test system: CYP3A; conditions: rats; cited from earlier work
[11] = test system: CYP3A; conditions: human hepatocytes; cited from earlier work

Cc1nccn1C(c1ccccc1)(c1ccccc1)c1ccccc1 [XIV]
increase in ethosuximide clearance [1]: > 2 fold

c1ccc(Cc2ccncc2)cc1 [XVI]
increase in ethosuximide clearance [1]: > 2 fold

c1ccc(C(c2ccccc2)(c2ccccc2)n2ccnc2)cc1 [V, 1-triphenylmethylimidazole]
CYP3A activity induced compared with clotrimazole (Compound (III)) [1]: significantly more CYP3A activity than did the lead compound

Fc1cccc(C(c2ccccc2)(c2ccccc2)n2ccnc2)c1 [XXXVIII]
increase in ethosuximide clearance [1]: > 3 fold | CYP3A activity induced compared with clotrimazole (Compound (III)) [1]: significantly more CYP3A activity than did the lead compound

CCC1(c2ccccc2)C(=O)NC(=O)NC1=O [phenobarbital]
levels of HDL-cholesterol [2]: higher levels of HDL-cholesterol | total serum HDL cholesterol/total cholesterol ratio [3]: increases in total serum HDL cholesterol/total cholesterol ratios | HDL-cholesterol [4]: increase HDL-cholesterol | apoA1 [5]: increase HDL-cholesterol and apoA1 in rats | inducer of the cytochromes P450 [6]: known to be an inducer of the cytochromes P450

Fc1ccc(C(c2ccccc2)(c2ccccc2)n2ccnc2)cc1 [XXXIX]
CYP3A activity induced compared with clotrimazole (Compound (III)) [1]: significantly more CYP3A activity than did the lead compound

Clc1ccc(C(c2ccccc2)(c2ccccc2)n2ccnc2)cc1 [XXXIII]
increase in ethosuximide clearance [1]: > 3 fold | CYP3A activity induced compared with clotrimazole (Compound (III)) [1]: significantly more CYP3A activity than did the lead compound

Clc1ccccc1C(c1ccccc1)(c1ccccc1)n1ccnc1 [III]
effect on HDL-cholesterol [7]: significant effect on HDL-cholesterol | liver/body weight ratio [8]: markedly increased liver/body weight ratios | HDL2/total cholesterol ratio [9]: noteworthy improvement in HDL2/total cholesterol ratios | inducer of CYP3A [10]: relatively selective inducer | inducer of CYP3A [11]: relatively selective inducer

C[C@@H]1C[C@H]2[C@@H]3CCC4=CC(=O)C=C[C@]4(C)[C@@]3(F)[C@@H](O)C[C@]2(C)[C@@]1(O)C(=O)CO [dexamethasone]
liver/body weight ratio [8]: markedly increased liver/body weight ratios | HDL2/total cholesterol ratio [9]: noteworthy improvement in HDL2/total cholesterol ratios

O=C1NC(=O)C(c2ccccc2)(c2ccccc2)N1 [phenytoin]
levels of HDL-cholesterol [2]: higher levels of HDL-cholesterol

Clc1cccc(C(c2ccccc2)(c2ccccc2)n2ccnc2)c1 [XXXI]
increase in ethosuximide clearance [1]: > 3 fold | CYP3A activity induced compared with clotrimazole (Compound (III)) [1]: significantly more CYP3A activity than did the lead compound

c1ccc(C(c2ccccc2)n2ccnc2)cc1 [XIII, 1-diphenylmethylimidazole]
CYP3A inducing activity ([1]; structure-activity statement in words, ethosuximide clearance): progressively lost
